Measured values reported in US20210186947A1, “TOMM6-INTERACTING EXTRACTS AND COMPOUNDS FOR USE IN THE TREATMENT AND PROPHYLAXIS OF NERVOUS SYSTEM DISEASES, ATHEROSCLEROSIS, HEPATITIS B INFECTION AND HUMAN PAPILLOMA VIRUS (HPV) INFECTION” (ETH ZURICH, priority 2018, published 2021).

How the values were obtained:
Salmonella strain TA2637 = settings: cited from earlier work
neuropeptide Y (Npy) = experiment: Whole genome microarray gene expression analysis of aortic genes: Npy; format: in vivo; settings: ApoE-/- mice, 10 mg/kg/day for 8 months
Protocol: Whole genome microarray gene expression profiling was performed with aortic specimens isolated from 9-month-old ApoE−/− mice without treatment and with oral treatment for 8 months with alizarin (10 mg/kg/day), and untreated age-matched B6 control mice. Total RNA was isolated by the RNeasy Mini kit according to the protocol of the manufacturer (Qiagen). RNA purity was between 1.8 and 2 as determined by the absorbance ratio of 260/280. RNA quality and absence of signs of degradation were also controlled by RNA electrophoresis on a denaturing agarose gel by the presence of bright bands of 28S and 18S ribosomal RNA. Total RNA was processed for whole genome microarray gene expression profiling with the GeneChip One-Cycle Target Labeling System (Affymetrix) according to the protocol of the manufacturer (Affymetrix GeneChip Expression Analysis Technical Manual Rev. 5). […]
Alzheimer's Disease (AD) is the most frequent form of dementia in the elderly. […] Atherosclerotic lesion area was assessed with oil red O-stained aortas isolated from 9-month-old ApoE−/− mice (FIG. 17A). […] The aortic expression levels of neuronal marker genes of alizarin-treated ApoE−/− mice were determined compared to untreated ApoE−/− mice and untreated B6 mice without atherosclerosis (FIG. 17D,E).

PHF-tau = experiment: Hippocampal PHF-tau in the Tg-TauP301L model of tauopathy (AT8 antibody); format: in vivo; settings: 12-month-old Tg-Tau-P301L mice treated for six months
[1] = Measurement of serum level in rats by HPLC; format: in vivo, Sprague Dawley rats
Protocol: Serum concentrations of alizarin were determined with serum isolated from the blood of male and female German shepherd dogs (age: 8-9 months) taken at different time points (0.5 h, 1 h, 2 h, 4 h, 6 h, 8 h, 24 h) after oral intake of the indicated doses for 4 weeks. In addition, serum concentrations of alizarin (Compound-1) were determined in male and female Sprague Dawley rats (body weight: 200-250 g) treated for 1 month and/or three months by oral gavage of alizarin at a once daily dose of 100 mg/kg, 50 mg/kg, 25 mg/kg and 12.5 mg/kg. Serum proteins were removed by acetonitrile precipitation, and alizarin was extracted by chloroform before separation on an HPLC-C18 column (Poroshell 120 EC-C18, 3.0×50 mm, Agilent) with an HPLC system (Agilent 1100 Series) and detection at OD245 nm. For quantitative determination of Compound-7 and Compound-10F in rat and dog serum, serum proteins were also removed by acetonitrile precipitation before HPLC analysis as detailed above and detection at OD254 nm.

## O=C1c2ccccc2C(=O)c2c1ccc(O)c2O [Compound-1, 1,2-dihydroxyanthraquinone]
Salmonella strain TA2637
  mutagenicity in the Ames test: could be mutagenic
Neuropeptide Y (Npy)
  aortic expression level of Npy: not down-regulated and maintained at the levels of the non-transgenic B6 controls
PHF-tau
  hippocampal content of PHF-tau: significantly decreased hippocampal content of PHF-tau
[1]; rats
  oral bioavailability / serum concentrations after oral intake: achieves therapeutic serum concentrations
[1]; rats vs dogs
  oral doses required to achieve equivalent peak serum concentrations, higher in rats compared to dogs: approximately 10 fold
